Assay: xn = mol fraction of the nth substance listed
Settings: Liquid; for speed of sound: Sing-around technique in a fixed-path interferometer; for mass density: Vibrating tube method

C=CC(C)(O)CCC=C(C)C (stereo unspecified) [3,7-dimethyl-1,6-octadien-3-ol] + CCO
Settings	mass density, 283.15 K [kg/m3]	mass density, 298.15 K [kg/m3]	mass density, 313.15 K [kg/m3]	mass density, 328.15 K [kg/m3]	speed of sound, 283.15 K [m/s]	speed of sound, 298.15 K [m/s]	speed of sound, 313.15 K [m/s]	speed of sound, 328.15 K [m/s]
101 kPa, x1 = 0.0493	–	–	–	–	–	–	–	1070.8
101 kPa, x1 = 0.0506	809.66	797.07	784.31	770.91	1222	–	–	–
101 kPa, x1 = 0.0507	–	–	–	–	–	1171.7	1122.4	–
101 kPa, x1 = 0.0996	–	–	–	–	–	–	1142.3	–
101 kPa, x1 = 0.1008	819.09	806.76	794.24	780.72	1245	1196.3	–	1095.1
101 kPa, x1 = 0.1969	833.37	821.08	808.41	795.22	1281	1229.2	1177.2	1125
101 kPa, x1 = 0.2884	–	–	818.41	805.21	–	–	–	–
101 kPa, x1 = 0.2895	843.35	831.1	–	–	–	1253.6	–	–
101 kPa, x1 = 0.2959	–	–	–	–	1307.6	–	1200.7	1147.3
101 kPa, x1 = 0.3862	–	838.62	–	–	1325.8	1271.2	–	–
101 kPa, x1 = 0.3918	–	–	–	–	–	–	1218.2	–
101 kPa, x1 = 0.3957	851.69	–	826.66	813.44	–	–	–	1163.9
101 kPa, x1 = 0.4803	856.48	844.09	831.36	818.17	1339	–	–	–
101 kPa, x1 = 0.4834	–	–	–	–	–	1285	–	1173.9
101 kPa, x1 = 0.4854	–	–	–	–	–	–	1230.3	–
101 kPa, x1 = 0.593	861.02	848.66	835.94	822.82	1350.3	1294.7	1240	1185.1
101 kPa, x1 = 0.6838	863.65	851.31	838.63	825.57	1355.4	1300.7	1247.1	1193.8
101 kPa, x1 = 0.7832	–	–	–	–	1361	1306.5	1252.8	1199
101 kPa, x1 = 0.8438	866.82	854.5	841.86	828.96	–	–	–	–
101 kPa, x1 = 0.8633	–	–	–	–	–	–	1257	1203.2
101 kPa, x1 = 0.8941	867.74	855.41	842.75	829.77	1365.1	1310.7	–	–
101 kPa, x1 = 0.9286	868.3	855.96	843.29	830.31	1366.7	1312.2	1259.5	1206.3
101 kPa, x1 = 1	869.39	857	844.29	831.31	1370.6	1315.1	1260.8	1207.6
20000 kPa, x1 = 0.0511	824.1	812.6	801	789.2	–	–	–	–
20000 kPa, x1 = 0.1003	832.7	821.5	809.9	798.3	–	–	–	–
20000 kPa, x1 = 0.1962	845.8	834.6	823	811.4	–	–	–	–
20000 kPa, x1 = 0.2989	856	844.8	833.1	821.4	–	–	–	–
20000 kPa, x1 = 0.3996	863	851.7	840	828.3	–	–	–	–
20000 kPa, x1 = 0.5015	868.2	856.9	845.2	833.5	–	–	–	–
20000 kPa, x1 = 0.5982	871.9	860.6	848.8	837.1	–	–	–	–
20000 kPa, x1 = 0.6898	874.7	863.4	851.6	839.9	–	–	–	–
20000 kPa, x1 = 0.7929	877.2	865.8	854.1	842.5	–	–	–	–
20000 kPa, x1 = 0.8885	879.1	867.7	856	844.4	–	–	–	–
20000 kPa, x1 = 0.9435	880	868.6	856.9	845.3	–	–	–	–
20000 kPa, x1 = 1	880.8	869.4	857.6	846	–	–	–	–
25000 kPa, x1 = 0.0511	827.5	816.1	804.8	793.4	–	–	–	–
25000 kPa, x1 = 0.1003	836.1	824.9	813.7	802.2	–	–	–	–
25000 kPa, x1 = 0.1962	849	837.9	826.7	815.2	–	–	–	–
25000 kPa, x1 = 0.2989	859.1	848	836.6	825.1	–	–	–	–
25000 kPa, x1 = 0.3996	866	854.8	843.5	831.9	–	–	–	–
25000 kPa, x1 = 0.5015	871.2	860	848.6	837	–	–	–	–
25000 kPa, x1 = 0.5982	874.9	863.6	852.2	840.6	–	–	–	–
25000 kPa, x1 = 0.6898	877.6	866.3	854.9	843.4	–	–	–	–
25000 kPa, x1 = 0.7929	880.1	868.7	857.4	845.9	–	–	–	–
25000 kPa, x1 = 0.8885	882	870.7	859.3	847.8	–	–	–	–
25000 kPa, x1 = 0.9435	882.9	871.5	860.1	848.6	–	–	–	–
25000 kPa, x1 = 1	883.7	872.3	860.9	849.3	–	–	–	–
30000 kPa, x1 = 0.0511	830.7	819.6	808.5	797.1	–	–	–	–
30000 kPa, x1 = 0.1003	839	828.2	817.2	806	–	–	–	–
30000 kPa, x1 = 0.1962	851.9	841.1	830.1	818.8	–	–	–	–
30000 kPa, x1 = 0.2989	861.9	851	839.9	828.6	–	–	–	–
30000 kPa, x1 = 0.3996	868.8	857.8	846.7	835.3	–	–	–	–
30000 kPa, x1 = 0.5015	873.9	863	851.7	840.4	–	–	–	–
30000 kPa, x1 = 0.5982	877.5	866.5	855.3	843.9	–	–	–	–
30000 kPa, x1 = 0.6898	880.2	869.2	858	846.7	–	–	–	–
30000 kPa, x1 = 0.7929	882.7	871.6	860.5	849.2	–	–	–	–
30000 kPa, x1 = 0.8885	884.6	873.5	862.3	851	–	–	–	–
30000 kPa, x1 = 0.9435	885.4	874.4	863.1	851.9	–	–	–	–
30000 kPa, x1 = 1	886.1	875.2	863.9	852.6	–	–	–	–
35000 kPa, x1 = 0.0511	833.8	822.8	812	800.7	–	–	–	–
35000 kPa, x1 = 0.1003	842.2	831.4	820.6	809.6	–	–	–	–
35000 kPa, x1 = 0.1962	854.9	844.1	833.3	822.3	–	–	–	–
35000 kPa, x1 = 0.2989	864.7	854	843	832	–	–	–	–
35000 kPa, x1 = 0.3996	871.5	860.7	849.6	838.6	–	–	–	–
35000 kPa, x1 = 0.5015	876.7	865.8	854.7	843.6	–	–	–	–
35000 kPa, x1 = 0.5982	880.3	869.3	858.3	847.2	–	–	–	–
35000 kPa, x1 = 0.6898	882.9	872	861	849.9	–	–	–	–
35000 kPa, x1 = 0.7929	885.3	874.4	863.4	852.3	–	–	–	–
35000 kPa, x1 = 0.8885	887.2	876.3	865.3	854.2	–	–	–	–
35000 kPa, x1 = 0.9435	888.1	877.1	866.1	855	–	–	–	–
35000 kPa, x1 = 1	888.9	877.9	866.8	855.7	–	–	–	–
40000 kPa, x1 = 0.0511	836.8	826	815.4	804.6	–	–	–	–
40000 kPa, x1 = 0.1003	845.1	834.5	824	813.1	–	–	–	–
40000 kPa, x1 = 0.1962	857.6	847.1	836.5	825.6	–	–	–	–
40000 kPa, x1 = 0.2989	867.4	856.9	846.2	835.2	–	–	–	–
40000 kPa, x1 = 0.3996	874.1	863.5	852.8	841.8	–	–	–	–
40000 kPa, x1 = 0.5015	879.3	868.6	857.8	846.7	–	–	–	–
40000 kPa, x1 = 0.5982	882.8	872.1	861.3	850.3	–	–	–	–
40000 kPa, x1 = 0.6898	885.5	874.8	864	853	–	–	–	–
40000 kPa, x1 = 0.7929	887.9	877.1	866.3	855.4	–	–	–	–
40000 kPa, x1 = 0.8885	889.7	878.9	868.2	857.2	–	–	–	–
40000 kPa, x1 = 0.9435	890.6	879.7	869	858.1	–	–	–	–
40000 kPa, x1 = 1	891.4	880.6	869.7	858.8	–	–	–	–
